According to patent publication US20210127673A1, “HERBICIDES” (SYNGENTA PARTICIPATIONS AG, priority 2016, published 2021):

Key:
Format in all cases: in vivo
Settings in all cases: 1000 g/ha, evaluated after 13 days
[1] = tested on: Triticum aestivium (TRZAW); assay: Pre-emergence herbicidal activity, Triticum aestivium; parameters: key: 5=total damage to plant; 0=no damage to plant
Description: (§1) Seeds of a variety of test species were sown in standard soil in pots: Triticum aestivium (TRZAW), Avena fatua (AVEFA), Alopecurus myosuroides (ALOMY), Echinochloa crus-galli (ECHCG), Lolium perenne (LOLPE), Zea Mays (ZEAMX), Abutilon theophrasti (ABUTH), Amaranthus retroflexus (AMARE) and Setaria faberi (SETFA). After cultivation for one day (pre-emergence) under controlled conditions in a glasshouse (at 24/16° C., day/night; 14 hours light; 65% humidity), the plants were sprayed with an aqueous spray solution derived from the formulation of the technical active ingredient in acetone/water (50:50) solution containing 0.5% Tween 20 (polyoxyethelyene sorbitan monolaurate, CAS RN 9005-64-5). The test plants were then grown in a glasshouse under controlled conditions (at 24/16°, day/night; 14 hours light; 65% humidity) and watered twice daily. After 13 days, the test was evaluated (5=total damage to plant; 0=no damage to plant).

Avena fatua (AVEFA) [2] = assay: Pre-emergence herbicidal activity, Avena fatua; parameters: key: 5=total damage to plant; 0=no damage to plant
Description: as §1

[3] = tested on: Alopecurus myosuroides (ALOMY); assay: Pre-emergence herbicidal activity, Alopecurus myosuroides; parameters: key: 5=total damage to plant; 0=no damage to plant
Description: as §1

[4] = tested on: Echinochloa crus-galli (ECHCG); assay: Pre-emergence herbicidal activity, Echinochloa crus-galli; parameters: key: 5=total damage to plant; 0=no damage to plant
Description: as §1

Lolium perenne (LOLPE) [5] = assay: Pre-emergence herbicidal activity, Lolium perenne; parameters: key: 5=total damage to plant; 0=no damage to plant
Description: as §1

Setaria faberi (SETFA) [6] = assay: Pre-emergence herbicidal activity, Setaria faberi; parameters: key: 5=total damage to plant; 0=no damage to plant
Description: as §1

[7] = tested on: Triticum aestivium (TRZAW); assay: Post-emergence herbicidal activity, Triticum aestivium; parameters: key: 5=total damage to plant; 0=no damage to plant
Description: (§2) Seeds of a variety of test species were sown in standard soil in pots: Triticum aestivium (TRZAW), Avena fatua (AVEFA), Alopecurus myosuroides (ALOMY), Echinochloa crus-galli (ECHCG), Lolium perenne (LOLPE), Zea Mays (ZEAMX), Abutilon theophrasti (ABUTH), Amaranthus retroflexus (AMARE) and Setaria faberi (SETFA). After 8 days cultivation (post-emergence) under controlled conditions in a glasshouse (at 24/16° C., day/night; 14 hours light; 65% humidity), the plants were sprayed with an aqueous spray solution derived from the formulation of the technical active ingredient in acetone/water (50:50) solution containing 0.5% Tween 20 (polyoxyethelyene sorbitan monolaurate, CAS RN 9005-64-5). The test plants were then grown in a glasshouse under controlled conditions (at 24/16° C., day/night; 14 hours light; 65% humidity) and watered twice daily. After 13 days, the test was evaluated (5=total damage to plant; 0=no damage to plant).

Avena fatua (AVEFA) [8] = assay: Post-emergence herbicidal activity, Avena fatua
Description: as §2

[9] = tested on: Alopecurus myosuroides (ALOMY); assay: Post-emergence herbicidal activity, Alopecurus myosuroides; parameters: key: 5=total damage to plant; 0=no damage to plant
Description: as §2

[10] = tested on: Echinochloa crus-galli (ECHCG); assay: Post-emergence herbicidal activity, Echinochloa crus-galli; parameters: key: 5=total damage to plant; 0=no damage to plant
Description: as §2

Lolium perenne (LOLPE) [11] = assay: Post-emergence herbicidal activity, Lolium perenne; parameters: key: 5=total damage to plant; 0=no damage to plant
Description: as §2

Setaria faberi (SETFA) [12] = assay: Post-emergence herbicidal activity, Setaria faberi; parameters: key: 5=total damage to plant; 0=no damage to plant
Description: as §2

| SMILES | Control of TRAZW after pre-emergence application (score 0-5) [1] | Control of AVEFA after pre-emergence application (score 0-5) (Avena fatua (AVEFA) [2]) | Control of ALOMY after pre-emergence application (score 0-5) [3] | Control of ECHCG after pre-emergence application (score 0-5) [4] | Control of LOLPE after pre-emergence application (score 0-5) (Lolium perenne (LOLPE) [5]) | Control of SETFA after pre-emergence application (score 0-5) (Setaria faberi (SETFA) [6]) | Control of TRAZW after post-emergence application (score 0-5) [7] | Control of AVEFA after post-emergence application (score 0-5) (Avena fatua (AVEFA) [8]) | Control of ALOMY after post-emergence application (score 0-5) [9] | Control of ECHCG after post-emergence application (score 0-5) [10] | Control of LOLPE after post-emergence application (score 0-5) (Lolium perenne (LOLPE) [11]) | Control of SETFA after post-emergence application (score 0-5) (Setaria faberi (SETFA) [12]) |
| --- | --- | --- | --- | --- | --- | --- | --- | --- | --- | --- | --- | --- |
| CN(C(=O)OC(C)(C)C)c1ccc(-c2cc(F)c[n+]([O-])c2)nc1C(F)(F)F [Compound B1, tert-butyl N-[6-(5-fluoro-1-oxido-pyridin-1-ium-3-yl)-2-(trifluoromethyl)-3-pyridyl]-N-methyl-carbamate] | 0 | 2 | 0 | 2 | 1 | 4 | 0 | 4 | 1 | 4 | 2 | 5 |
| CC(C)(C)OC(=O)N(Cc1ccc(F)cc1F)c1ccc(-c2cncc(F)c2)nc1C(F)(F)F [Compound B3] | 0 | 0 | 0 | 0 | 0 | 0 | 0 | 2 | 0 | 2 | 0 | 3 |
| CN(C(=O)OC(C)(C)C)c1ccc(-c2cncc(C#N)c2)nc1C(F)(F)F [Compound B4] | 1 | 0 | 0 | 1 | 0 | 4 | 2 | 2 | 1 | 4 | 1 | 5 |
| CC(C)(C)OC(=O)Nc1ccc(-c2cncc(C(F)F)c2)nc1C(F)(F)F [Compound B5] | 0 | 0 | 0 | 2 | 0 | 4 | 0 | 1 | 1 | 3 | 1 | 4 |
| CC(C)(C)OC(=O)Nc1ccc(-c2cncc(Cl)c2)nc1C(F)(F)F [Compound B6] | 0 | 2 | 1 | 3 | 1 | 5 | 1 | 3 | 1 | 4 | 4 | 5 |
| CC(C)(C)OC(=O)Nc1ccc(-c2cncc(OC(F)(F)F)c2)nc1C(F)(F)F [Compound B36] | 0 | 2 | 0 | 3 | 0 | 5 | 0 | 3 | 0 | 3 | 1 | – |
| CC(C)NC(=O)Nc1ccc(-c2cncc(F)c2)nc1C(F)(F)F [Compound B37, 1-[6-(5-fluoro-3-pyridyl)-2-(trifluoromethyl)-3-pyridyl]-3-isopropyl-urea] | 0 | 2 | 0 | 4 | 1 | 5 | 0 | 3 | 0 | 5 | 2 | – |
| CN(C)C(=O)Nc1ccc(-c2cncc(F)c2)nc1C(F)(F)F [Compound B52] | 0 | 2 | 0 | 3 | 1 | – | 0 | 3 | 0 | 4 | 3 | 5 |
| O=C(Nc1ccc(-c2cncc(F)c2)nc1C(F)(F)F)OC1CCS(=O)(=O)C1 (stereo not shown) [Compound B66] | 0 | 2 | 0 | 3 | 1 | 5 | 1 | – | 0 | 4 | – | 5 |
| CN(C)C(=O)N(C)c1ccc(-c2cncc(F)c2)nc1C(F)(F)F [Compound B74] | 1 | 2 | 1 | 4 | 1 | 5 | 0 | – | 0 | 4 | – | 5 |
| COC(=O)c1nc(-c2cncc(F)c2)ccc1NC(=O)OC(C)(C)C [Compound B77] | 0 | 0 | 0 | 1 | 0 | – | 0 | 1 | 0 | 1 | 1 | 2 |
